Reference: patent US20020018788A1, “PREPARATION PROTECTING SKIN FROM MECHANICAL IRRITATION” (priority 1996, published 2002)

Assays:
[1] = test system: mechanical skin irritation; assay: Thermal conductivity of the skin (microcirculation), skin cut by scraping, group 1; assay type: in vivo, healthy female volunteers; conditions: for % Variation, treated area/untreated area 1 (microcirculation): 4% (weight/volume) in distilled water, mean ± standard error; for % Variation, treated area/untreated area 1 (microcirculation) / Mean values of thermal conductivity (K), treated area: n=6
Protocol: (§1) The effect of trimethylglycine on the skin was studied by measuring the thermal conductivity of the skin by a method described by A. Dittmar in Cutaneous investigation in health and disease. Non-invasive methods and instrumentation, ed. J. L. Lévêque, Marcel Dekker Inc., New York-Basel, 1989. The method correlates directly with microcirculation on the skin. Thermal conductivity (K) is measured from the skin with a specific Hematron® thermal sensor and transformed into an electric signal, which is recorded by a recorder. In thermal conductivity (ΔK), a significant level of variation is 0.1 mW/cm.°C.
(§2) The test was conducted on two test groups, each one of which comprised six healthy female volunteers. In the first test group (group 1), four cutaneous test areas were defined on the arm of each subject, and microcirculation was first measured for 30 minutes before the preparation was added. The skin was then cut by scraping in all the four areas, and onto the skin was pressed a filter paper into which a solution had been absorbed that contained 14 μl/cm^2 of 4% (weight/volume) trimethylglycine in distilled water, or only distilled water (placebo). Subsequently, microcirculation was measured for 60 minutes at the erythematous, damaged points on the skin, treated with the solution.
(§3) The thermal conductivity values measured on each volunteer subject are shown in table 1 (group 1) and table 2 (group 2). Tables 1 and 2 show the mean values (n=6) of thermal conductivity (K expressed as mW/cm .°C.) in the treated area, placebo area, and untreated areas at different instances of measuring. In tables 1 and 2, the treated area means an area treated with a preparation containing trimethylglycine; untreated area 1 is an untreated area that is symmetric with the area treated with the preparation containing trimethylglycine; the placebo area means an area treated with a placebo; and untreated area 2 is an untreated area that is symmetric with the area treated with the placebo.
(§4) Per /cent (%) variations between the treated area and untreated area 1, and the placebo area and untreated area 2 were calculated for each volunteer subject 30 and 60 min after application of the product. The variations were calculated using the formula [formula]

[2] = test system: thermal skin irritation; assay: Thermal conductivity of the skin (microcirculation), infrared irradiation, group 2; assay type: in vivo, healthy female volunteers
Protocol: as §1
In the second test group (group 2), the subjects' microcirculation was measured at the erythema in the same way as above, but the irritation was here caused by 30-minute infrared irradiation (IR Philips 250 S lamps, spectrum 700 to 2500 nm, power 250 W, light energy 70 mW/cm^2, irradiation area 14 cm^2) in the four cutaneous areas defined on the upper back.
as §3, §4

[3] = pure form; in water and in lower alcohols, such as methanol and ethanol; cited from earlier work
[4] = test system: skin; assay: Tolerance of the preparation by the subjects in both tests; assay type: in vivo, healthy female volunteers; conditions: topical 4% (weight/volume) preparation
Protocol: as §2, with “solution. In the second test group (group 2), the subjects' microcirculation was measured at the erythema in the same way as above, but the irritation was here caused by 30-minute infrared irradiation (IR Philips 250 S lamps, spectrum 700 to 2500 nm, power 250 W, light energy 70 mW/cm^2, irradiation area 14 cm^2) in the four cutaneous areas defined on the upper back.” for “solution.”

C[N+](C)(C)CC(=O)[O-] [trimethylglycine]
% Variation, treated area/untreated area 1 (microcirculation) ([1]; group 1, t30 min): -8.9±8.6%
% Variation, treated area/untreated area 1 (microcirculation) ([1]; group 1, t60 min): -15.0±8.8%
Effect against mechanical erythema as compared with the placebo ([1]; group 1, 4% (weight/volume) in water, effect detected 60 min after the application): effective against mechanical erythema
Mean values of thermal conductivity (K), treated area ([1]; t0, before application of product, arm skin): 3.82 ± 0.59 mW/cm · ° C.
Mean values of thermal conductivity (K), treated area ([1]; t30, 30 min after application of 4% (weight/volume) trimethylglycine in distilled water, 14 μl/cm^2, skin cut by scraping): 3.66 ± 0.69 mW/cm · ° C.
Mean values of thermal conductivity (K), treated area ([1]; t60, 60 min after application of 4% (weight/volume) trimethylglycine in distilled water, 14 μl/cm^2, skin cut by scraping): 3.42 ± 0.41 mW/cm · ° C.
% Variation, treated area/untreated area 1 (microcirculation) ([2]; group 2, t30 min, 4% (weight/volume) in distilled water, mean ± standard error, n=6): 23.5±11.8%
Effect on thermal erythema ([2]; group 2, preparation containing trimethylglycine): no effect on thermal erythema
Mean values of thermal conductivity (K), treated area ([2]; t0, before application of product, upper back, n=6): 3.13 ± 0.30 mW/cm · ° C.
Mean values of thermal conductivity (K), treated area ([2]; t30, 30 min after application of 4% (weight/volume) trimethylglycine in distilled water, 30-minute infrared irradiation, n=6): 3.85 ± 0.31 mW/cm · ° C.
Mean values of thermal conductivity (K), treated area ([2]; t60, 60 min after application of 4% (weight/volume) trimethylglycine in distilled water, 30-minute infrared irradiation, n=6): 3.60 ± 0.38 mW/cm · ° C.
Solubility [3]: readily soluble
Tolerance / sensitivity of the subjects [4]: tolerated the trimethylglycine preparation well
